The source of these data is patent US20240392241A1, “METHOD FOR PRODUCING CELL MASS INCLUDING PITUITARY TISSUE AND CELL MASS” (SUMITOMO CHEMICAL COMPANY, LIMITED, priority 2021, published 2024).

Ends that are not written are not given here.

What all share (assay type): cell-based
Assay [1] concerns cell aggregates containing pituitary tissue from human ES cells (KhES-1 strain). Kind of assay: ACTH stimulation/suppression test by CRH or dexamethasone in cell aggregates containing pituitary tissue (Example 14). The conditions noted are these: 24 hr, cell aggregates on day 103. As for the experimental part:
Cell aggregates containing pituitary tissue were produced in the same manner as in Example 10, and ACTH secretory capacity was studied. 20 cell aggregates with different numbers of culture days after the start of suspension culturing were transferred to a 10 cm suspension culture dish containing 10 mL of serum-free medium supplemented with 20% KSR, and after culturing for 3-4 days at 37° C., the culture supernatant was recovered. The ACTH concentration in the recovered culture supernatant was measured by the ELISA method used in clinical testing (testing outsourced to SRL, Ltd.). As a result, ACTH secretion was observed from day 29 after the start of suspension culturing (23 pg/mL), and the amount of ACTH secretion increased remarkably as the number of days of culture increased (FIG. 17A).
Then, it was studied whether an increase in ACTH secretion by CRH and suppression of ACTH secretion by glucocorticoid were observed. Specifically, 20 cell aggregates on day 103 after the start of suspension culturing were transferred to a 10 cm suspension culture dish containing 10 mL of serum-free medium supplemented with 20% KSR, and after culturing for 24 hr under conditions of 37° C., […], the culture supernatant was recovered. […] The ACTH concentration in the recovered culture supernatant was measured as described above. […]

Assay [2] deals with human ES cells (KhES-1 strain). In words: Concentration of IWP2, BMP4 and SAG, ACTH concentration in culture medium (Reference Example 3). To be noted: combination: low (IWP2 0.5 μM, BMP4 0.5 nM, SAG 700 nM) vs high (IWP2 2 μM, BMP4 5 nM, SAG 2 μM); days 61-250. As to the method: Then, for the purpose of examining the optimal concentrations of IWP2, BMP4, and SAG to be added in each step, two groups of a high concentration group (IWP2; 2 μM, BMP4; 5 nM, SAG; 2 μM) and a low concentration group (IWP2; 0.5 μM, BMP4; 0.5 nM, SAG; 700 nM) were established, and a comparative study was conducted using the ACTH concentration in the culture medium on days 61, 103, 152, 201, and 250 of differentiation induction as an indicator. Using human ES cells (KhES-1 strain) and according to step shown in FIG. 9A, a cell population including cells that constitute pituitary tissue was produced. Using the method described in Example 4, the concentration of ACTH in the medium was measured.

Assay [3] deals with human ES cells (RAX::Venus knock-in KhES-1 strain). In words: Addition period of IWP2, SB431542 and BMP4, immunostaining of PITX1, LHX3, E-cadherin on day 29 (Reference Example 2). The conditions noted are these: IWP2 (2 μM) and SB431542 (1 μM) added day 0 to day 29 and BMP4 (5 nM) day 2 to day 6, vs other addition periods. As to the method: After performing step a, suspension culturing was performed in a medium containing a Wnt signal inhibitor IWP2 (2 μM) and a TGFβ signal inhibitor SB431542 (1 μM) in addition to BMP4 (5 nM) and SAG (100 nM (step (1)) or 2 μM (step (2)). IWP2 and SB431542 were added during the period from day 0 to day 6 after the start of suspension culturing (FIG. 8B-1), from day 0 to day 12 after the start of suspension culturing (FIG. 8B-2), or from day 0 to day 29 after the start of suspension culturing (FIG. 8B-3). BMP4 was added during the period from day 2 to day 6 after the start of suspension culturing (upper panel of each of FIGS. 8B-1 to -3) or from day 2 to day 18 after the start of suspension culturing (lower panel of each of FIGS. 8B-1 to -3). Using cell aggregates on day 29 after the start of suspension culturing, cryosections were prepared in the same manner as in Example 3. These cryosections were subjected to immunostaining using PITX1 (anti-Pitx1 antibody, homemade) and antibody against epithelial cell marker E-cadherin (manufactured by Takara Bio Inc.). As a result, it was confirmed that the outside of the aggregate was a nonneural epithelial tissue that was positive for PITX1 and E-cadherin, and the inside was a neural epithelial tissue that was positive for RAX::Venus (FIGS. 8B-1 to -3).
The scale bar at the bottom right of FIGS. 8B-1 to -3 indicates 200 μm.

The subject of assay [4] is human iPS cell line 1231A3. Kind of assay: Effect of substance reducing oxidative stress on pituitary organoid production, bright field observation (Example 6). The conditions noted are these: 1 mM from day 10; day 30 of differentiation induction.
Assay [5] deals with human iPS cells (201B7 strain). In words: SAG addition period and ACTH secretion capacity of cell aggregates (Example 9). The conditions noted are these: stopping SAG treatment 30 days after start of differentiation induction vs continued SAG treatment. As for the experimental part:
Using human iPS cells (201B7 strain) and according to the steps shown in FIG. 12A, cell aggregates were produced. Regarding the SAG treatment period, two groups of a group in which SAG is added from immediately after the start of differentiation induction until day 30, and a group in which SAG is added from immediately after the start of differentiation induction and after day 30 (until day 61, until day 103, and until day 131) were set, and the ACTH secretion capacity was compared. ACTH was measured by a method similar to that in Example 4.

The subject of assay [6] is human iPS cells (1231A3 strain). In words: Timing of BMP4 addition under JNK inhibitor addition conditions, oblique illumination observation (Example 17). To be noted: BMP4 added after 24 hr (day 1) vs about 48 hr (day 2); JNK inhibitor present; day 28. As for the experimental part: In Example 17, a cell population containing cells constituting pituitary tissue was produced according to the steps shown in FIG. 20A. Specifically, human iPS cells (1231A3 strain, obtained from RIKEN) were cultured under feeder-free conditions according to the method described in Scientific Reports, 4, 3594 (2014). As the feeder-free medium, StemFit medium was used and, as the feeder-free scaffold, Laminin 511-E8 was used.
Differentiation induction was performed under the same conditions as in Example 1, except that the addition conditions of BMP4 and the final concentration of IWP-2 were changed to 1 μM. As a condition for adding BMP4, step (2) was performed about 24 hr (day 1) and about 48 hr (day 2) after the start of differentiation induction.
On day 28 after the start of suspension culturing, oblique illumination observation was performed using an inverted fluorescence microscope (BIOREVO BZ-X800, manufactured by Keyence Corporation) (FIG. 20B). As a result, pituitary organoid with placode-like pituitary tissue observed as a thick, highly transparent epithelium on the surface of the cell mass was formed, under both BMP4 addition conditions of about 24 hr (day 1) and about 48 hr (day 2) after the start of differentiation induction. […]

Regarding `C[C@@H]1C[C@H]2[C@@H]3CCC4=CC(=O)C=C[C@]4(C)[C@@]3(F)[C@@H](O)C[C@]2(C)[C@@]1(O)C(=O)CO` [DX, dexamethasone], the “reduction of the amount of ACTH secretion” value in assay [1] (500 ng/mL) is “about 40%”.

Regarding `Cc1ccc2nc(NC(=O)CSc3nc4c(c(=O)n3-c3ccccc3)SCC4)sc2c1` [IWP2, N-(6-Methyl-2-benzothiazolyl)-2-[(3,4,6,7-tetrahydro-4-oxo-3-phenylthieno[3,2-d]pyrimidin-2-yl)thio]acetamide], the “ACTH concentration in the culture medium, low concentration group vs high concentration group” value (“ACTH concentration … vs high concentration group” for short) in assay [2] is “higher”. The “formation of PITX1-positive and E-cadherin-positive nonneural epithelial tissue” value (shortened to “formation”) in assay [3] is on record as “highest probability”.

Consider `CC(=O)N[C@@H](CS)C(=O)O` [NAC, N-acetylcysteine], for which, in assay [4], the “cell masses smaller in diameter than in the non-addition conditions” value is “about 50 μm” and the “proliferation of unintended cells” value is given as “suppressed”.

As for `CNC1CCC(N(Cc2cccc(-c3ccncc3)c2)C(=O)c2sc3ccccc3c2Cl)CC1` (stereo not drawn) [SAG, N-Methyl-N′-(3-pyridinylbenzyl)-N′-(3-chlorobenzo[b]thiophene-2-carbonyl)-1,4-diaminocyclohexane], the “ACTH concentration … vs high concentration group” value in assay [2] is listed as “higher”. The ACTH secretion capacity result in assay [5] is given as “improved”.

Take `NC(=O)c1ccc(-c2nc(-c3ccc4c(c3)OCO4)c(-c3ccccn3)[nH]2)cc1` [SB431542, 4-[4-(3,4-Methylenedioxyphenyl)-5-(2-pyridyl)-1H-imidazol-2-yl]benzamide]: in assay [3], the “formation” value is reported as “highest probability”.

For the molecule “CRH: CRH (manufactured by Nipro ES Pharma) used to stimulate ACTH secretion (SEEPPISLDLTFHLLREVLEMARAEQLAQQAHSNRKLMEII; ends and bridges not checked; UniProt P06850 154-194, looked up)”, in assay [1] (5 μg/mL), the “increase of ACTH secretion amount” value was “about 3 times”.

B1: BMP4: BMP signal transduction pathway activating substance (protein, UniProt P12644 293-408, looked up)
Bone morphogenetic protein 4: SPKHHSQRARKKNKNCRRHSLYVDFSDVGWNDWIVAPPGYQAFYCHGDCPFPLADHLNSTNHAIVQTLVNSVNSSIPKACCVPTELSAISMLYLDEYDKVVLKNYQEMVVEGCGCR
B1: the “size of the pituitary organoids formed” value in assay [6] was “more uniform”. Also, in assay [2], the “ACTH concentration … vs high concentration group” value is on record as “higher”. For the same molecule, the “formation” value in assay [3] is “highest probability”.
